Values quoted from earlier work as cited in patent US20240251900A1, “PATCH FOR TARGETED DELIVERY OF HAIR COMPOSITION AND METHOD FOR APPLYING SAME” (Better Not Younger Corporation, priority 2022, published 2024).

Tested on: hair follicle
Conditions: Capixyl techsheet page 38

acetyl tetrapeptide-3
stimulation of hair growth versus market reference Minoxidil: stimulate hair growth better than the market reference, Minoxidil
